Holding throughout (experiment): NCI-60 cell line screen, 48 h
In experiment [1] the test system is MCF7 breast.
Experiment [2] deals with SNB-75 CNS.
Experiment [3] concerns NCI-H23 lung.
Experiment [4] relates to SN12C renal.
Experiment [5] has as its system HCC-2998 colon.
The test system of experiment [6] is SK-MEL-2 melanoma.
Experiment [7] has as its system A498 renal.
Experiment [8] concerns HL-60(TB) leukemia.
In experiment [9] the test system is PC-3 prostate.
Experiment [10] relates to MDA-MB-231 breast.
Experiment [11] relates to UACC-62 melanoma.
Experiment [12] concerns M14 melanoma.
Experiment [13] deals with SK-MEL-28 melanoma.
For experiment [14], the system named is LOX IMVI melanoma.
For experiment [15], the system named is U251 CNS.
Experiment [16] has as its system SF-539 CNS.
Experiment [17] concerns NCI-H226 lung.
For experiment [18], the system named is SR leukemia.
Experiment [19] has as its system HT29 colon.

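These data come from cells grown in 96-well plates and exposed to compound for 48 hours at five concentrations. TGI denotes the concentration required for complete inhibition of growth.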

On to `CC(C)SC(NC(=O)C1C(C)(C)CCC1(C)C)C(=O)O` (centres undefined), for which the TGI in experiment [1], in experiment [2], in [3], in [4], in experiment [5] and in [6] was above 100 µM throughout. Also, the TGI in experiment [7], in [8], in experiment [9], in experiment [10], in experiment [11] and in experiment [12] was above 100 µM throughout. Also, the TGI in [13], in experiment [14], in experiment [15], in experiment [16] and in [17] was above 100 µM throughout.

With `CN(CC(=O)O)c1ncc2c(n1)-c1ccccc1OC2`, the TGI in experiment [1], in [2], in experiment [3], in experiment [4], in experiment [18] and in experiment [19] was above 100 µM throughout. For the same molecule, the TGI in [6], in experiment [7], in experiment [8], in experiment [9], in [10] and in experiment [11] was above 100 µM throughout. Moreover, the TGI in experiment [12], in experiment [13], in experiment [14], in experiment [15] and in experiment [16] was above 100 µM throughout.

With `COc1ccc(C=C(c2ccc(OCc3ccccc3)cc2)c2ccc(OCc3ccccc3)cc2)cc1`, the TGI in experiment [2], in [3], in experiment [4], in [5], in experiment [18] and in experiment [19] was above 100 µM in each case. Also, the TGI in experiment [6], in experiment [8], in experiment [11], in [12], in [13] and in experiment [14] was above 100 µM each time. The TGI in [15], in experiment [16] and in experiment [17] was above 100 µM each time.

For `O=C1C2CN(Cc3ccccc3)CC1CN(CC1CC1)C2`, the TGI in [2], in experiment [3], in experiment [4], in [19], in [6] and in experiment [7] was above 100 µM in each case. Also, the TGI in experiment [8], in [11], in experiment [12], in experiment [13], in [14] and in [15] was above 100 µM each time. For the same molecule, the TGI in experiment [16] and in [17] was above 100 µM throughout.

Regarding `CN1Cc2cc3c(cc2-c2ccccc21)OCO3`, the TGI in experiment [2], in experiment [3], in [4], in experiment [5], in [18] and in experiment [19] was above 100 µM each time. Further, the TGI in [6], in [7], in experiment [8], in experiment [11], in experiment [12] and in experiment [13] was above 100 µM throughout. Also, the TGI in [14], in [15] and in experiment [16] was above 100 µM each time.

For the molecule `NCCC(=O)N[C@@H](Cc1cc(O)c(O)c(SCC(NC(=O)CC[C@H](N)C(=O)O)C(=O)NCC(=O)O)c1)C(=O)O` (some centres undefined), the TGI in [1], in experiment [2], in [3], in experiment [4], in experiment [5] and in [19] was above 50 µM each time. The TGI in [6], in [7], in experiment [9], in experiment [10], in experiment [11] and in experiment [12] was above 50 µM throughout. In addition, the TGI in experiment [13], in experiment [15] and in experiment [17] was above 50 µM in each case.

For `COc1cc(/C=C2\C(=O)N(C(=O)c3ccc(NC(C)=O)cc3)N=C2C)ccc1O`, the TGI in [2], in experiment [3], in [4], in experiment [5], in experiment [18] and in [19] was above 100 µM in each case. For the same molecule, the TGI in experiment [8], in experiment [12], in experiment [13], in experiment [14], in experiment [16] and in [17] was above 100 µM throughout.

`Brc1cc2c(cc1C1SCCS1)OCO2`: the TGI in [2], in experiment [3], in experiment [5], in experiment [18], in [19] and in experiment [6] was above 100 µM each time. Moreover, the TGI in [7], in experiment [8], in [11], in experiment [12], in experiment [13] and in experiment [14] was above 100 µM in each case. The TGI in experiment [15] and in experiment [16] was above 100 µM throughout.

Consider `COc1c(C)cc2c(c1O)C1NC(C2)[C@H](O)N2C3COC(=O)[C@@]4(CS[C@@H](c5c(OC(C)=O)c(C)c6c(c53)OCO6)C12)NCCC1=C4NC2C=CC=CC12` (some centres undefined), for which the TGI was below 0.01 µM in experiment [2]; below 0.01 µM in [3]; 0.0365 µM in experiment [4]; below 0.01 µM in experiment [5]; 0.107 µM in experiment [19]; below 0.01 µM in experiment [6]. Also, the TGI in [7], in experiment [8], in experiment [11], in experiment [12], in experiment [13] and in experiment [14] was below 0.01 µM throughout. For the same molecule, the TGI in [15] and in experiment [17] was below 0.01 µM each time.

As for `Cc1cc(-c2nc3ccc(F)cc3s2)ccc1N`, the TGI in [1], in experiment [2], in [3], in experiment [4], in [5] and in experiment [18] was above 100 µM in each case. For the same molecule, the TGI in experiment [19], in experiment [6], in experiment [7], in experiment [9], in experiment [10] and in experiment [11] was above 100 µM in each case. Besides, the TGI in [12], in experiment [13], in experiment [14], in experiment [15], in experiment [16] and in experiment [17] was above 100 µM each time.

On to `COc1ccccc1/C=C1\CCC(CCN2CCOCC2)C1=O` (centres undefined), for which the TGI in experiment [2], in experiment [3], in experiment [4], in [5], in experiment [18] and in experiment [19] was above 100 µM in each case. Moreover, the TGI in [6], in [7], in [8], in experiment [11], in [12] and in experiment [13] was above 100 µM throughout. Moreover, the TGI in experiment [14], in [16] and in experiment [17] was above 100 µM in each case.

In the case of `O[C@@H]1C[C@H]2N3CC[C@@]2(c2cc4c(cc2C3)OCO4)[C@H]2O[C@@H]12`, the TGI in [1], in [2], in experiment [3], in experiment [4], in experiment [5] and in experiment [19] was above 100 µM in each case. For the same molecule, the TGI in [6], in experiment [7], in experiment [8], in experiment [9], in experiment [10] and in [11] was above 100 µM in each case. Moreover, the TGI in experiment [12] was above 100 µM; in experiment [13] it was above 100 µM; in experiment [14], above 100 µM; in experiment [15], above 100 µM; in experiment [16], 0.041 µM; in experiment [17], 0.0792 µM.

Turning to `COc1cc(/C=C\c2cccnc2)cc(OC)c1OC`, the TGI is above 100 µM in experiment [2]; above 100 µM in [3]; above 100 µM in [4]; above 100 µM in experiment [19]; 48 µM in experiment [8]; above 100 µM in experiment [11]. For the same molecule, the TGI was 97.2 µM in experiment [12]; above 100 µM in experiment [13]; 71.3 µM in experiment [14]; above 100 µM in experiment [15]; above 100 µM in experiment [16]; above 100 µM in experiment [17].

As for `COC(=O)CSC(=S)Nc1nnc(NC(=S)SCOC(C)=O)n1C(=S)SCC(=O)OC`, the TGI in experiment [1], in experiment [3], in [4], in experiment [5], in experiment [18] and in [19] was above 100 µM throughout. Also, the TGI in experiment [7], in experiment [8], in experiment [9], in experiment [11], in experiment [12] and in [13] was above 100 µM in each case. The TGI in experiment [14] and in experiment [15] was above 100 µM in each case.

Regarding `CN(Cc1ccccc1)C(=NC#N)N(C)Cc1ccccc1`, the TGI in experiment [3], in [4], in experiment [5], in experiment [19], in [6] and in experiment [11] was above 100 µM throughout. Moreover, the TGI in experiment [12], in experiment [13], in experiment [14], in experiment [15] and in [16] was above 100 µM throughout.

As to `O=c1[nH]cnc2c1CCCN2`, the TGI in [2], in experiment [3], in experiment [4], in [5], in [18] and in experiment [19] was above 100 µM each time. Besides, the TGI in experiment [6], in [8], in experiment [11], in [12], in experiment [13] and in experiment [14] was above 100 µM each time. Besides, in experiment [15], the TGI was above 100 µM.

For `CNc1nnc(CNc2ccc(-c3nnc(NC)n3N)cc2)n1N`, the TGI was above 100 µM in experiment [1]; above 100 µM in experiment [2]; above 100 µM in experiment [3]; above 100 µM in experiment [4]; 93.8 µM in experiment [5]; above 100 µM in experiment [19]. Moreover, the TGI in [6], in experiment [7], in experiment [8], in experiment [9], in [10] and in experiment [12] was above 100 µM in each case. Moreover, the TGI in [13], in [14], in experiment [15], in experiment [16] and in experiment [17] was above 100 µM in each case.

With `CC(C)N1CN(C(C(=O)N[C@@H]2C(=O)N3C2SC(C)(C)C3C(=O)O)c2ccc(O)cc2)CSC1=S` (some centres undefined), the TGI in [2], in experiment [3], in experiment [4], in [19], in [6] and in experiment [7] was above 100 µM each time. Further, the TGI in [8], in experiment [11], in experiment [12], in experiment [13], in experiment [14] and in experiment [15] was above 100 µM in each case. The TGI in [16] is above 100 µM.

For the origin of these results see PubChem BioAssay (NCI).
